Source: US6440958B1, “Acrylic and propionic acid compounds, intermediates, processes, compositions, and methods” (Eli Lilly and Company, priority 1995, dated 2002)

Tests used:
[1] = tested on: ovariectomized (OVX) rats; test: Uterine wet weight in ovariectomized rat post-menopausal model; format: in vivo, Sprague Dawley rats; conditions: for Uterine weight (% increase vs. OVX): oral, daily for 4 days, OVX rats
Description: (§1) In the examples illustrating the methods, a post-menopausal model was used in which effects of different treatments upon circulating lipids were determined.
(§2) Seventy-five day old female Sprague Dawley rats (weight range of 200 to 225g) were obtained from Charles River Laboratories (Portage, Mich.). The animals were either bilaterally ovariectomized (OVX) or exposed to a Sham surgical procedure at Charles River Laboratories, and then shipped after one week. Upon arrival, they were housed in metal hanging cages in groups of 3 or 4 per cage and had ad libitum access to food (calcium content approximately 0.5%) and water for one week. Room temperature was maintained at 22.2°±1.7° C. with a minimum relative humidity of 40%. The photoperiod in the room was 12 hours light and 12 hours dark.
(§3) Dosing Regimen Tissue Collection. After a one week acclimation period (therefore, two weeks post-OVX) daily dosing with test compound was initiated. 17α-ethynyl estradiol or the test compound were given orally, unless otherwise stated, as a suspension in 1% carboxymethylcellulose or dissolved or suspended in 20% cyclodextrin. Animals were dosed daily for 4 days. Following the dosing regimen, animals were weighed and anesthetized with a ketamine: Xylazine (2:1, V:V) mixture and a blood sample was collected by cardiac puncture. The animals were then sacrificed by asphyxiation with CO2, the uterus was removed through a midline incision, and a wet uterine weight was determined.

[2] = tested on: ovariectomized (OVX) rats; test: Uterine eosinophil peroxidase (EPO) assay; format: in vivo, Sprague Dawley rats; parameters: unit not given here; conditions: oral, daily for 4 days
From the text: as §2, §3
Uterine Eosinoihil Peroxidase (EPO) Assay. Uteri were kept at 4° C. until time of enzymatic analysis. The uteri were then homogenized in 50 volumes of 50 mM Tris buffer (pH -8.0) containing 0.005% Triton X-100. Upon addition of 0.01% hydrogen peroxide and 10 mM O-phenylenediamine (final concentrations) in Tris buffer, increase in absorbance was monitored for one minute at 450 nm. The presence of eosonophils in the uterus is an indication of estrogenic activity of a compound. The maximal velocity of a 15 second interval was determined over the initial, linear portion of the reaction curve.

[3] = tested on: ovariectomized (OVX) rats; test: Serum cholesterol in ovariectomized rat post-menopausal model; format: in vivo, Sprague Dawley rats; conditions: oral, daily for 4 days
Description: as §1, §2, §3
Cholesterol Analysis. Blood samples were allowed to clot at room temperature for 2 hours, and serum was obtained following centrifugation for 10 minutes at 3000 rpm. Serum cholesterol was determined using a Boehringer Mannheim Diagnostics high performance cholesterol assay. Briefly the cholesterol was oxidized to cholest-4-en-3-one and hydrogen peroxide. The hydrogen peroxide was then reacted with phenol and 4-aminophenazone in the presence of peroxidase to produce a p-quinone imine dye, which was read spectrophotometrically at 500 nm. Cholesterol concentration was then calculated against a standard curve. The entire assay was automated using a Biomek Automated Workstation.

[4] = tested on: ovariectomized (OVX) rats; test: Uterine eosinophil peroxidase (EPO) assay; format: in vivo, Sprague Dawley rats
[5] = dose 0.1 mg/kg, test compounds in CDX (cyclodextrin) susp. or soln.
[6] = dose 0.1 mg/kg, test compounds in CDX susp. or soln.
[7] = dose 1 mg/kg, CDX susp. or soln.
[8] = dose 10 mg/kg, CDX susp. or soln.

Compound | Uterine weight (% increase vs. OVX) [1, 5] | Effect on uterus / uterine weight (in words) ([1]; orally administered at 0.1 mg/kg/day, vs. ovariectomized test animals) | Uterine EPO (V. max) [2, 6] | Serum Cholesterol (% decrease vs. OVX) [3, 6] | Eosinophil infiltration into the uterus (stromal layer), in words [4] | Uterine weight (% increase vs. OVX) [1, 7] | Uterine weight (% increase vs. OVX) [1, 8] | Uterine EPO (V. max) [2, 7] | Uterine EPO (V. max) [2, 8] | Serum Cholesterol (% decrease vs. OVX) [3, 7] | Serum Cholesterol (% decrease vs. OVX) [3, 8] | melting point
C#C[C@]1(O)CC[C@H]2[C@@H]3CCc4cc(O)ccc4[C@H]3CC[C@@]21C [EE2, 17α-ethynyl estradiol, reference compound] | 201.3% | uterine weight was substantially greater than the uterine weight of ovariectomized test animals | 130.5 | 68.6% | substantial, expected increase in eosinophil infiltration | – | – | – | – | – | – | –
COc1ccc(-c2sc3cc(OC)ccc3c2C(=O)c2ccc(/C=C/C(=O)O)cc2)cc1 [Example 2] | 25.0% | – | 2.1 | −16.6% | – | 23.3% | 119.9% | 2.1 | 35.1 | −37.3% | 73.2% | 204 to 207 °C
O=C(O)/C=C/c1ccc(C(=O)c2c(-c3ccc(O)cc3)sc3cc(O)ccc23)cc1 [Example 3, (E)-6-hydroxy-3-[4-(2-carboxyvinyl)benzoyl]-2-(4-hydroxyphenyl)benzo[b]thiophene] | 23.9% | – | 0.9 | −15.1% | – | 19.7% | 97.3% | 1.2 | 8.4 | −26.6% | 57.7% | –
O=C(O)CCc1ccc(C(=O)c2c(-c3ccc(O)cc3)sc3cc(O)ccc23)cc1 [Example 4, 6-hydroxy-3-[4-(2-carboxyethyl)benzoyl]-2-(4-hydroxyphenyl)benzo[b]thiophene] | −45.9% | – | 0.0 | −46.2% | – | −37.0% | 29.3% | 0.0 | 1.2 | −28.8% | 16.5% | 244 to 248 °C
